Where a SMILES comes first, the peptide text is derived from it. The star is where a group is joined. Cbz = O=C(OCc1ccccc1)*
Key:
ARR7 and ARR15 = details: wild-type plants, one hour treatment with 100 nM t-zeatin, qRT-PCR
Method: (§1) Cytokinin Growth and Molecular Response Analyses. Hypocotyl and root growth analyses were performed according to known methods (Argyros, et al. (2008) Plant Cell 20(8):2102-2116) and hypocotyl and root lengths were measured using ImageJ software (version 1.32; National Institutes of Health). Root meristem size was determined via established methods (Perilli & Sabatini (2010) Methods Mol. Biol. 655:177-187). The apical meristem was visualized by bright field microscopy, with tissue sectioning, fixation, and staining performed according to known methods (Chiang, et al. (2012) Plant Physiol. 160(1):332-348). Total RNA isolation, cDNA production, and quantitative RT-PCR (qRT-PCR) were performed via established methods (Argyros, et al. (2008) supra). Transcript abundances were calculated using the comparative CT method, with 13-TUB3 (At5g62700) as the normalized control.
(§2) Plant Growth Conditions and Cytokinin Treatment. Seeds were surface-sterilized and cold-treated for 3 days in the dark at 4° C. to ensure uniform germination before being moved into the light. For molecular and physiological assays, seedlings were grown on medium containing 1× Murashige and Skoog (MS) salts with vitamins (Research Products International Corp.), 1% sucrose, and 0.8% phytoagar (Research Products International Corp.) at 22° C. under continuous white light (50 μE·m^−2·s^−1) unless specified otherwise. […]

[1] = tested on: dark-grown, wild-type seedlings; details: increasing concentrations of t-zeatin
Method: as §1, §2

proteasome = experiment: Role of the proteasome in ARR stability, immunoblot of protoplasts; assay type: cell-based, Arabidopsis; details: 10 μM MG132, 3 hours

Structure (SMILES) | induction of ARR7 and ARR15 expression (ARR7 and ARR15) | hypocotyl elongation [1] | protein level of ARR1 (proteasome; protoplasts from ARR1-HA overexpression line) | protein level of ARR12 (proteasome; protoplasts from ARR12-Myc overexpression line)
C/C(=C\CNc1ncnc2[nH]cnc12)CO [t-zeatin, 6-(4-hydroxy-3methylbut-trans-2-enylamino) purine] | two- to four-fold | inhibition of hypocotyl elongation | – | –
CC(C)C[C@@H](C=O)NC(=O)[C@H](CC(C)C)NC(=O)[C@H](CC(C)C)NC(=O)OCc1ccccc1 [MG132] (Cbz-Leu-Leu-Leu-aldehyde) | – | – | increased | increased

Reference: US9796985B2, “Compositions and method for modulating the sensitivity of plants to cytokinin” (Trustees of Dartmouth College, priority 2013, dated 2017)
